Results reported in patent US20240239814A1, “Complexes Of CU(I) As Antitumor Agents” (priority 2021, published 2024).
Like-named read-outs stand apart in the source and are kept apart here. Marks after values point to notes of the source that are not given here.

Experiments:
[1] = system: human ovarian cancer cells 2008; experiment: MTT cytotoxicity assay, 72 h, 2008
Text: (§1) Human breast (MCF-7), lung (H157), pancreatic (PSN-1) and colon (HCT-15 and LoVo) carcinoma cell lines were obtained from the American Type Culture Collection (ATCC, Rockville, MD). A431 are human cervical carcinoma cells kindly provided by Prof. F. Zunino (Molecular Pharmacology Unit, Experimental Oncology and Molecular Medicine, Istituto Nazionale dei Tumori, Milan, Italy). […] G. Marverti (Dept. of Biomedical Science, University of Modena, Italy).
(§2) Briefly, depending upon the growth characteristics of the cell line, 3-8×10^3 cells well^−1, were seeded in 96-well microplates in growth medium (100 μL) and then incubated at 37° C. in a 5% carbon dioxide atmosphere. After 24 h, the medium was removed and replaced with a fresh one containing the compound to be studied, at the appropriate concentration, dissolved in 0.9% sodium chloride solution just before use. Triplicate cultures were established for each treatment. After 72 h, each well was treated with 10 μL of a 5 mg mL^−1 MTT saline solution and, after 5 h of incubation, 100 μL of a sodium dodecylsulfate (SDS) solution in 0.01 M HCl were added. After an overnight incubation, the inhibition of cell growth induced by the tested complexes was determined by measuring the absorbance of each well at 570 nm using a Bio-Rad 680 microplate reader. Mean absorbance for each drug dose was expressed as percentage of the control and plotted vs. drug concentration. Dose-response curves were fitted and IC50 values were calculated with four parameter logistic model (4PL).
(§3) The cytotoxicity was evaluated by means of the MTT test for 72 h treatment with increasing concentrations of the tested compounds.
(§4) Cytotoxic activity was examined against a panel of human tumor cell lines. […] The growth inhibitory effect was evaluated by means of MTT test. Cells (5-8×10^3 mL^−1, depending on the growth characteristics of the cell line) were treated for 72 h with increasing concentrations of tested compounds. […] SD=standard deviation, -=not detected.
as §3, §4

[2] = system: LoVo MDR cells; experiment: MTT cytotoxicity assay, 72 h, LoVo MDR (multidrug resistant); format: cell-based, human; settings: MTT test, mean ± SD
Text: as §1, §2
(§5) A LoVo cell line retaining a multidrug resistance phenotype was also considered (LoVo MDR). Cross-resistance profiles were evaluated by means of the resistance factor (RF), which is defined as the ratio between the IC50 value for the resistant cells and that arising from the sensitive cells (Table 3).
Cells (5×10^3 mL-1) were treated for 72 h with increasing concentrations of tested compounds. Cytotoxicity was assessed by MTT test. […] Resistant Factor (in brackets) is defined as IC50 resistant/parent line. […]

[3] = system: human colon cancer cells LoVo; experiment: MTT cytotoxicity assay, 72 h, LoVo; format: cell-based; settings: MTT test, mean ± SD
Procedure: Triplicate cultures were established for each treatment.
as §5, with “. A” for “A”
Cytotoxicity was assessed by MTT test. […]. Resistant Factor (in brackets) is defined as IC50 resistant/parent line.

[4] = system: human lung carcinoma cells H157; experiment: MTT cytotoxicity assay, 72 h, H157; format: cell-based; settings: MTT test, mean ± SD
Text: as §1, §2, §3, §4

[5] = system: human pancreatic carcinoma cells PSN-1; experiment: MTT cytotoxicity assay, 72 h, PSN-1; format: cell-based; settings: MTT test, mean ± SD
Text: as §1, §2, §3, §4

[6] = system: human colon carcinoma cells HCT-15; experiment: MTT cytotoxicity assay, 72 h, HCT-15; format: cell-based; settings: MTT test, mean ± SD
Text: as §1, §2, §3, §4

[7] = system: human breast carcinoma cells MCF-7; experiment: MTT cytotoxicity assay, 72 h, MCF-7; format: cell-based; settings: MTT test, mean ± SD
Text: as §1, §2, §3, §4

[8] = system: LoVo-OXP cells; experiment: MTT cytotoxicity assay, 72 h, LoVo-OXP (oxaliplatin resistant); format: cell-based, human; settings: MTT test, mean ± SD
Text: as §1, §2, §5
Cells (5×10^3 mL-1) were treated for 72 h with increasing concentrations of tested compounds. Cytotoxicity was assessed by MTT test. […] Resistant Factor (in brackets) is defined as IC50 resistant/parent line.

[9] = system: human cervical carcinoma cells A431; experiment: MTT cytotoxicity assay, 72 h, A431; format: cell-based; settings: MTT test, mean ± SD
Text: as §1, §2, §3, §4

[10] = system: murine Lewis lung carcinoma (LLC); experiment: In vivo anticancer activity toward Lewis lung carcinoma; set-up: species or system C57BL mice; settings: for Average tumor weight (mean ± SD, g) / Inhibition of tumor growth (%): daily i.p. from day 9, measured at day 15, 6: 5 mg kg^−1, 9: 3 mg kg^−1, cisplatin: 1.5 mg kg^−1; for Inhibition of tumor growth (%): referred to control animals
Procedure: (§6) The mice were purchased from Charles River, Italy, housed in steel cages under controlled environmental conditions (constant temperature, humidity, and 12 h dark/light cycle), and alimented with commercial standard feed and tap water ad libitum. Animals were observed daily, and body weight and food intake recorded. The Lewis lung carcinoma (LLC) cell line was purchased from ECACC, UK. The LLC cell line was maintained in D-MEM (Euroclone) supplemented with 10% heat-inactivated FBS (Euroclone), 10 mM L-glutamine, 100 U mL^−1 penicillin, and 100 μg mL^−1 streptomycin in a 5% CO2 air incubator at 37° C. […] At day 15, animals were sacrificed, the legs were amputated at the proximal end of the femur, and the inhibition of tumor growth was determined according to the difference in weight of the tumor-bearing leg and the healthy leg of the animals expressed as % referred to the control animals. Body weight was measured every two days and was taken as a parameter for systemic toxicity. All the values are the means±S.D. of not less than three measurements. Multiple comparisons were made by Tukey-Kramer test (** p<0.01; * p or °p<0.05).
(§7) For the assessment of the adverse side effects, changes in body weights of tumor-bearing mice were monitored daily (FIG. 1).
Starting from day 9 after tumor implantation, tested compounds were daily administered i.p. At day 15, mice were sacrified and tumor growth was detected as described above.

[11] = Procedure: as §6, §7
[12] = system: panel of human tumor cell lines; experiment: Average cytotoxic activity over the cell panel (MTT) compared with reference drugs; settings: on average over the cell panel
Procedure: as §2, §3
Cytotoxic activity was examined against a panel of human tumor cell lines. […] The growth inhibitory effect was evaluated by means of MTT test. […] SD=standard deviation, -=not detected.

[13] = read-out: IC50 2008, MTT test, mean ± SD, Table 2
[14] = read-out: IC50 2008, MTT test, mean ± SD, Table 1

Molecule | IC50 [1, 13] | IC50 [4] | IC50 [5] | IC50 [6] | IC50 [1, 14] | IC50 [7] | IC50 [8] | IC50 [9] | IC50 [2] | IC50 [3] | also measured
F[B-](F)(F)F.O=S(=O)(O)c1ccccc1P(c1ccccc1)c1ccccc1.O=S(=O)(O)c1ccccc1P(c1ccccc1)c1ccccc1.[Cu+] [Compound 14, Bis[2-(diphenylphosphino]benzenesulfonic acid]copper(I) tetrafluoroborate] | 0.8 ± 0.2 µM | – | – | – | – | – | – | – | – | – | –
COc1cccc2c1C(=O)c1c(O)c3c(c(O)c1C2=O)C[C@@](O)(C(=O)CO)C[C@@H]3O[C@H]1C[C@H](N)[C@H](O)[C@H](C)O1 [doxorubicin, reference compound] | – | – | – | – | – | – | – | – | – | – | IC50 ([2]; Homo sapiens, LoVo): 19.4 ± 2.2 µM; IC50 ([3]; Homo sapiens, LoVo): 1.1 ± 0.5 µM
COCOc1ccccc1P(c1ccccc1)c1ccccc1.COCOc1ccccc1P(c1ccccc1)c1ccccc1.F[B-](F)(F)F.[Cu+] [Compound 13, Bis[diphenyl(2-(methoxymethoxy)phenyl)phosphine] copper(I)tetrafluoroborate] | 1.5 ± 0.4 µM | – | – | – | – | – | – | – | – | – | –
Bis[tris(N-methylpiperazineN′- methyl)phosphine]copper(I) tetrafluoroborate [Compound 5] | – | 4.3 ± 1.2 µM | 7.3 ± 1.4 µM | 8 ± 2.6 µM | 5.2 ± 1.7 µM | – | – | – | – | – | –
Bis[tris(4- methylphenyl)phosphine] copper(I) nitrate [Compound 2] | – | 3.4 ± 0.2 µM | 0.3 ± 0.08 µM | 0.5 ± 0.2 µM | 1.3 ± 0.3 µM | 3.1 ± 0.6 µM | 1.3 ± 0.5 µM | 3 ± 1.4 µM | 0.9 ± 0.6 µM | 1.4 ± 0.1 µM | –
N.N.[Cl][Pt][Cl] [cisplatin, cis-diamminedichloroplatinum(II), reference compound] | 2.2 ± 0.5 µM | 2.1 ± 0.9 µM | 18.3 ± 3.1 µM | 15.3 ± 2.6 µM | 2.2 ± 0.5 µM | 7.6 ± 0.2 µM | – | 2.1 ± 0.8 µM | – | – | Average tumor weight (mean ± SD, g) [10]: 0.119 ± 0.10** g; Inhibition of tumor growth (%) [10]: 79.8%; body weight loss ([11]; mouse, in vivo, ip): > 20%
F[B-](F)(F)F.Oc1ccccc1P(c1ccccc1)c1ccccc1.Oc1ccccc1P(c1ccccc1)c1ccccc1.[Cu+] [Compound 12, Bis[diphenyl(2-hydroxyphenyl)phosphine] copper(I)tetrafluoroborate] | 1.1 ± 0.3 µM | – | – | – | – | – | – | – | – | – | –
O=C1[O][Pt]2([NH][C@@H]3CCCC[C@H]3[NH]2)[O]C1=O [oxaliplatin, cyclohexane-1,2-diamineethanedioatoplatinum(II), reference compound] | 1.7 ± 1 µM | 11.8 ± 3.2 µM | 16.1 ± 2.5 µM | 1.3 ± 0.3 µM | 1.7 ± 1 µM | 3.4 ± 1.2 µM | 17.5 ± 1.8 µM | 3.7 ± 1 µM | 1.4 ± 0.8 µM | 3.1 ± 0.3 µM | –
Bis[tris(morpholineN- methyl)phosphine]copper(I) tetrafluoroborate [Compound 7] | – | 8.4 ± 1.8 µM | 12.3 ± 1.5 µM | 6.4 ± 0.5 µM | 9.2 ± 1 µM | 6.1 ± 1.5 µM | 0.4 ± 0.2 µM | 15 ± 2.2 µM | 0.4 ± 0.3 µM | 0.6 ± 0.3 µM | –
Bis[tris(4- methoxyphenyl)phosphine] copper(I) nitrate [Compound 3] | – | 1.2 ± 0.01 µM | – | 0.3 ± 0.2 µM | 0.5 ± 0.1 µM | 1.3 ± 0.4 µM | – | 3.1 ± 1.1 µM | 0.9 ± 0.2 µM | – | –
Bis[tris(N-EthylpiperazineN′- methyl)phosphine]copper(I) tetrafluoroborate [Compound 6] | – | 3.8 ± 0.3 µM | 13.3 ± 3.2 µM | 2.5 ± 0.1 µM | 14.5 ± 1.2 µM | 3.1 ± 0.9 µM | 1.3 ± 0.5 µM | 7.7 ± 0.5 µM | 1.2 ± 0.9 µM | 0.7 ± 0.3 µM | Average tumor weight (mean ± SD, g) [10]: 0.142 ± 0.09** g; Inhibition of tumor growth (%) [10]: 75.9%
F[B-](F)(F)F.O=Cc1ccccc1P(c1ccccc1)c1ccccc1.O=Cc1ccccc1P(c1ccccc1)c1ccccc1.[Cu+] [Compound 9, Bis[2-(diphenylphosphanyl)benzaldehyde]copper(I) tetrafluoroborate] | – | 1.5 ± 0.2 µM | 1.1 ± 0.5 µM | 0.8 ± 0.2 µM | 0.6 ± 0.1 µM | 1.3 ± 0.3 µM | 1.1 ± 0.6 µM | 4.7 ± 0.6 µM | 0.8 ± 0.5 µM | 0.6 ± 0.2 µM | reduction of the tumor mass ([10]; 3 mg kg^−1 daily i.p., day 15): 83%; Average tumor weight (mean ± SD, g) [10]: 0.098 ± 0.06** g; Inhibition of tumor growth (%) [10]: 83.4%; average cytotoxic activity relative to cisplatin ([12]; times more effective than cisplatin): 4.8 times; average cytotoxic activity relative to oxaliplatin ([12]; times more effective than oxaliplatin): 3.8 times; tolerability compared with cisplatin ([11]; doses 5 and 3 mg kg^−1 represent ⅓ of the MTD): better tolerated than cisplatin
COc1ccccc1P(c1ccccc1)c1ccccc1.COc1ccccc1P(c1ccccc1)c1ccccc1.F[B-](F)(F)F.[Cu+] [Compound 11, Bis[diphenyl(2-methoxyphenyl)phosphine] copper(I)tetrafluoroborate] | 0.4 ± 0.3 µM | – | – | – | – | – | – | – | – | – | cytotoxicity against human ovarian cancer cells compared with cisplatin and oxaliplatin ([1]; 2008 cells, MTT): the most cytotoxic derivative
F[B-](F)(F)F.O=C(O)c1ccccc1P(c1ccccc1)c1ccccc1.O=C(O)c1ccccc1P(c1ccccc1)c1ccccc1.[Cu+] [Compound 10, Bis[2-(diphenylphosphanyl)benzoic acid]copper(I) tetrafluoroborate] | – | 0.9 ± 0.1 µM | 0.6 ± 0.01 µM | 1.8 ± 0.6 µM | 0.3 ± 0.1 µM | 1.1 ± 0.2 µM | 0.09 ± 0.03 µM | 3.8 ± 1.1 µM | 0.9 ± 0.4 µM | 1.5 ± 0.4 µM | –
Bis[tris(4- fluorophenyl)phosphine] copper(I) nitrate [Compound 4] | – | 0.9 ± 0.1 µM | 6.2 ± 0.9 µM | 1.1 ± 0.5 µM | 1.9 ± 0.5 µM | 1.4 ± 0.3 µM | 0.7 ± 0.1 µM | 0.8 ± 0.6 µM | 1 ± 0.1 µM | 0.9 ± 0.3 µM | –
Bis[tris(phenylphosphine)] copper(I) nitrate [Compound 1] | – | 1.6 ± 0.1 µM | 4.5 ± 1.8 µM | 1.8 ± 0.8 µM | 2.2 ± 0.1 µM | 1.9 ± 0.7 µM | 0.3 ± 0.1 µM | 0.2 ± 0.01 µM | 0.5 ± 0.2 µM | 0.4 ± 0.03 µM | –
Bis[tris(thiomorpholineN- methyl)phosphine]copper(I) tetrafluoroborate [Compound 8] | – | 5.3 ± 1.2 µM | 7.7 ± 1.3 µM | 10.2 ± 0.1 µM | 11.9 ± 0.1 µM | – | – | – | – | – | –
